The values below come from patent publication US12188932B2, “Method for high throughput peptide-MHC affinity screening for TCR ligands” (priority 2018, dated 2025).

The data set concerns GloResponse NFAT-luc2 Jurkat cells. The conditions noted are these: T2 loaded with 100 nM peptide, 18 hours.

Protocol: T cell activation assays using GloResponse™ NFAT-luc2 Jurkat cells and peptide loaded T2 target cells were performed according to manufacturer instructions. In short, T2 cells were harvested from continuous cell culture, washed and resuspended in T2 culture medium at a concentration of 3.3×10^6 cells/ml and transferred to 96 well round bottom plates (Corning Costar®, Cat. Nr. 3799). Peptide in DMSO, 0.5% TFA was added to a final concentration of 100 nM and the suspension incubated for 2 to 3 hours at 37° C., 5% CO2. bsTCR formulated in PBS was diluted in T2 culture medium to desired concentration and 25 μl of the respective dilution was distributed to white 96 well flat bottom plates (Brand, Cat. Nr. 781965). […] After the incubation period 75 μl of Bio-Glo™ luciferase reagent was added to each well and the plates incubated for minutes at 300 rpm on a plate shaker in the dark before reading luminescence at a 0.5 second integration time with a Synergy2 plate reader (Biotek). Luminescence as measured in relative light units (RLU) was converted to fold induction for each well by dividing measured RLU through those of control wells.
T2 cells were loaded separately with respective peptides from the positional scanning library at a concentration of 100 nM and subsequently co-incubated with Jurkats and different bsTCR concentrations for 18 hours before readout.

ALYNVLAKV: the “T cell activation (luminescence fold induction over background)” value was “reactive in the reporter assay”.
